Like-named read-outs stand apart in the source and are kept apart here.
Columns and labels:
MacroD1 [1] = target: T1, MacroD1 (Homo sapiens, UniProt Q9BQ69); assay: biochemical; assay type: binding
VEEV Macro [2] = target: T2, VEEV Macro (Venezuelan equine encephalitis virus, UniProt P27282); assay: biochemical; assay type: binding
MacroD1 [3] = target: T1, MacroD1; conditions: cited from earlier work
SARS-CoV-2 Macro1 [4] = target: T3, SARS-CoV-2 Macro1 (Severe acute respiratory syndrome coronavirus 2, UniProt P0DTD1); assay: biochemical; assay type: binding
human MacroD2 [5] = target: T4, human MacroD2 (Homo sapiens, UniProt A1Z1Q3); assay: biochemical; assay type: binding
T4 sequence (A1Z1Q3 59-240 limits assumed): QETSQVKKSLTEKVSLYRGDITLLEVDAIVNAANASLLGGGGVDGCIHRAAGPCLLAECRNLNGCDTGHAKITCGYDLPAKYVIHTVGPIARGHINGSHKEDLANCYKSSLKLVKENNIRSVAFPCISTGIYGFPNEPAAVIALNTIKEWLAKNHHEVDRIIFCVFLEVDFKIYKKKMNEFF

CHIKV Macro [6] = target: T5, CHIKV Macro (Chikungunya virus, UniProt Q8JUX6); assay: biochemical; assay type: binding
T5 sequence (Q8JUX6 1334-1493 limits assumed): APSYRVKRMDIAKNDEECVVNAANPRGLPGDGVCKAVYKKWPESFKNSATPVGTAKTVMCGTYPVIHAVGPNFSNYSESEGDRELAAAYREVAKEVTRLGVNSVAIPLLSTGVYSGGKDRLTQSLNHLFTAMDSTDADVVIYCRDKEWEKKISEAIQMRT

PARP9 Macro2 = PARP9 Macro2 (Homo sapiens, UniProt Q8IXQ6); assay: biochemical; assay type: binding
SARS-CoV-2 Macro1 [7] = target: T3, SARS-CoV-2 Macro1; assay type: binding
MacroD1 [8] = target: T1, MacroD1; assay type: binding
human MacroD2 [9] = target: T4, human MacroD2; assay type: binding
VEEV Macro [10] = target: T2, VEEV Macro; assay type: binding
CHIKV Macro [11] = target: T5, CHIKV Macro; assay type: binding
SARS Macro1 = SARS Macro1 (Severe acute respiratory syndrome coronavirus 2, UniProt P0DTD1); assay type: biochemical, SARS-CoV-2
MacroD1 [12] = target: T1, MacroD1; assay type: biochemical

T1 sequence (Q9BQ69 141-322 limits assumed): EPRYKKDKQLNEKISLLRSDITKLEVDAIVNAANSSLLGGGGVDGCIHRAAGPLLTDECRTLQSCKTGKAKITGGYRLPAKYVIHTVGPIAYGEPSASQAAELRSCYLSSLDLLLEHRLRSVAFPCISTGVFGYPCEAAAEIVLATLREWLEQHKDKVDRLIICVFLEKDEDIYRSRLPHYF
T2 sequence (P27282 1330-1489 limits assumed): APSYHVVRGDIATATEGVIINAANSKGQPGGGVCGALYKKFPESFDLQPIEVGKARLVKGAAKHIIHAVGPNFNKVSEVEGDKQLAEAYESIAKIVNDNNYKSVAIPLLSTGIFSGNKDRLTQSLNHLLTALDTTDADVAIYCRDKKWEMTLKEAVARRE

Structure (SMILES): Nc1ncnc2c1ncn2[C@@H]1O[C@H](COP(=O)(O)OP(=O)(O)OC[C@H]2OC(O)[C@H](O)[C@@H]2O)[C@@H](O)[C@H]1O (stereo partly drawn) [ADPr, adenine diphosphate ribose]
- IC50 (MacroD1 [1]; read-out: IC50 MacroD1): 1.42 ± 0.22 µM
- IC50 (VEEV Macro [2]; read-out: IC50 VEEV Macro): 18.3 ± 2.8 µM
- Kd (MacroD1 [3]): 0.72 µM

Structure (SMILES): [N-]=[N+]=NC1OC(COP(=O)(O)OP(=O)(O)OCC2OC(n3cnc4c(N)ncnc43)C(O)C2O)C(O)C1O (stereo not drawn) [ADPr-N3]
- IC50 (SARS-CoV-2 Macro1 [4]): 7.23 ± 0.94 µM
- IC50 Fold Decrease Relative to ADPr: SARS Macro1 (SARS-CoV-2 Macro1 [4]): ~2 fold

Structure (SMILES): N#C[C@@]1(c2ccc3c(N)ncnn23)O[C@H](CO)[C@@H](O)[C@H]1O [GS-441524]
- IC50 (MacroD1 [1]): > 100 µM
- IC50 (human MacroD2 [5]): > 100 µM
- IC50 (VEEV Macro [2]): > 100 µM
- IC50 (CHIKV Macro [6]): > 100 µM
- IC50 (PARP9 Macro2): > 100 µM

Structure (SMILES): CN(C)c1ccc2c(c1)Oc1cc(N(C)C)ccc1C21OC(=O)c2cc(C(=O)NCCCCCCNC(=O)CCc3cn([C@H]4O[C@H](COP(=O)(O)OP(=O)(O)OC[C@H]5O[C@@H](n6cnc7c(N)ncnc76)[C@H](O)[C@@H]5O)[C@@H](O)[C@H]4O)nn3)ccc21 [TAMRA-ADPr]
- mP shift (SARS-CoV-2 Macro1 [7]): over 110 mP
- mP shift (MacroD1 [8]): more than 100 mP
- mP shift (human MacroD2 [9]): more than 100 mP
- mP shift (VEEV Macro [10]): ~70 mP
- mP shift (CHIKV Macro [11]): ~70 mP

Structure (SMILES): Nc1ncnc2c1ncn2[C@@H]1O[C@H](COP(=O)(O)OP(=O)(O)OC[C@H]2O[C@H](Oc3ccc4c(C(F)(F)F)cc(=O)oc4c3)[C@H](O)[C@@H]2O)[C@@H](O)[C@H]1O [TFMU-ADPr, ADP-ribosylated trifluoromethyl umbelliferone]
- IC50 (SARS-CoV-2 Macro1 [4]): 0.59 µM
- IC50 Fold Decrease Relative to ADPr: SARS Macro1 (SARS-CoV-2 Macro1 [4]): 25 fold
- IC50 (MacroD1 [1]): 0.29 ± 0.02 µM
- IC50 (human MacroD2 [5]): 0.09 ± 0.02 µM
- IC50 (VEEV Macro [2]): 4.24 ± 0.36 µM
- IC50 (CHIKV Macro [6]): 37.6 ± 12.3 µM
- IC50 (PARP9 Macro2): 10.9 ± 1.1 µM
- MAR hydrolysis activity of SARS Macro1 in the presence of inhibitor (SARS Macro1): lowered MAR hydrolysis activity
- MAR hydrolysis activity of MacroD1 in the presence of inhibitor (MacroD1 [12]): lowered MAR hydrolysis activity

Structure (SMILES): Nc1ncnc2c1ncn2[C@@H]1O[C@H](COP(=O)(O)O)[C@@H](O)[C@H]1O[C@@H]1O[C@H](COP(=O)(O)O)[C@@H](O)[C@H]1O [iso-ADPr]
- Competition with the tracer in macrodomain binding (SARS-CoV-2 Macro1 [4]): did not compete
- Competition with the tracer in macrodomain binding (MacroD1 [1]): did not compete
- Competition with the tracer in macrodomain binding (human MacroD2 [5]): did not compete
- Competition with the tracer in macrodomain binding (VEEV Macro [2]): did not compete
- Competition with the tracer in macrodomain binding (CHIKV Macro [6]): did not compete
- Competition with the tracer in macrodomain binding (PARP9 Macro2): did not compete

Structure (SMILES): Nc1ncnc2c1ncn2[C@@H]1O[C@H](COP(=O)(O)OP(=O)(O)OC[C@H]2O[C@H](Oc3ccc([N+](=O)[O-])cc3)[C@H](O)[C@@H]2O)[C@@H](O)[C@H]1O [pNP-ADPr, ADP-ribosylated p-nitrophenol]
- IC50 (SARS-CoV-2 Macro1 [4]): 0.37 µM
- IC50 Fold Decrease Relative to ADPr: SARS Macro1 (SARS-CoV-2 Macro1 [4]): 40 fold
- IC50 (MacroD1 [1]): 0.96 ± 0.07 µM
- IC50 (human MacroD2 [5]): 0.15 ± 0.01 µM
- IC50 (VEEV Macro [2]): 10.7 ± 0.9 µM
- IC50 (CHIKV Macro [6]): 22.8 ± 5.7 µM
- IC50 (PARP9 Macro2): 4.5 ± 0.4 µM
- MAR hydrolysis activity of SARS Macro1 in the presence of inhibitor (SARS Macro1): lowered MAR hydrolysis activity
- MAR hydrolysis activity of MacroD1 in the presence of inhibitor (MacroD1 [12]): lowered MAR hydrolysis activity
